Test results reported in ChEMBL document CHEMBL1949591, “Reversal of multidrug resistance by morning glory resin glycosides in human breast cancer cells” (J Nat Prod, 2012).
Values after ≈ are worked out from the molar mass of the structure shown.

Legend:
MCF7 [1] = test: Reversal of p-glycoprotein-mediated drug resistant in human MCF7 cells grown in vinblastine-free medium assessed as ratio of IC50 for vinblastin to IC50 for vinblastin in presence of compound at 25 ug/ml after 72 hrs by SRB assay; type: cell-based
MCF7 [2] = test: Reversal of p-glycoprotein-mediated drug resistant in vinblastine-sensitive human MCF7 cells assessed as ratio of IC50 for vinblastin to IC50 for vinblastin in presence of compound at 25 ug/ml after 72 hrs by SRB assay; type: cell-based
MCF7 [3] = test: Reversal of p-glycoprotein-mediated drug resistant in vinblastine-resistant human MCF7 cells assessed as ratio of IC50 for vinblastin to IC50 for vinblastin in presence of compound at 25 ug/ml after 72 hrs by SRB assay; type: cell-based
MCF7 [4] = test: Inhibition of p-glycoprotein expression in vinblastine-sensitive human MCF7 cells at 25 ug/ml after 24 hrs by immunofluorescence flow cytometry relative to control; type: functional; details: MCF7, 24 h
[5] = target: T1, ATP-dependent translocase ABCB1 (Homo sapiens, UniProt P08183); test: Inhibition of p-glycoprotein in vinblastine-sensitive human MCF7 cells assessed as decrease in rhodamine 123 accumulation at 25 ug/ml after 30 mins by flow cytometry; type: cell-based; details: mcf7, 0.5 h
T1 sequence (P08183 whole entry): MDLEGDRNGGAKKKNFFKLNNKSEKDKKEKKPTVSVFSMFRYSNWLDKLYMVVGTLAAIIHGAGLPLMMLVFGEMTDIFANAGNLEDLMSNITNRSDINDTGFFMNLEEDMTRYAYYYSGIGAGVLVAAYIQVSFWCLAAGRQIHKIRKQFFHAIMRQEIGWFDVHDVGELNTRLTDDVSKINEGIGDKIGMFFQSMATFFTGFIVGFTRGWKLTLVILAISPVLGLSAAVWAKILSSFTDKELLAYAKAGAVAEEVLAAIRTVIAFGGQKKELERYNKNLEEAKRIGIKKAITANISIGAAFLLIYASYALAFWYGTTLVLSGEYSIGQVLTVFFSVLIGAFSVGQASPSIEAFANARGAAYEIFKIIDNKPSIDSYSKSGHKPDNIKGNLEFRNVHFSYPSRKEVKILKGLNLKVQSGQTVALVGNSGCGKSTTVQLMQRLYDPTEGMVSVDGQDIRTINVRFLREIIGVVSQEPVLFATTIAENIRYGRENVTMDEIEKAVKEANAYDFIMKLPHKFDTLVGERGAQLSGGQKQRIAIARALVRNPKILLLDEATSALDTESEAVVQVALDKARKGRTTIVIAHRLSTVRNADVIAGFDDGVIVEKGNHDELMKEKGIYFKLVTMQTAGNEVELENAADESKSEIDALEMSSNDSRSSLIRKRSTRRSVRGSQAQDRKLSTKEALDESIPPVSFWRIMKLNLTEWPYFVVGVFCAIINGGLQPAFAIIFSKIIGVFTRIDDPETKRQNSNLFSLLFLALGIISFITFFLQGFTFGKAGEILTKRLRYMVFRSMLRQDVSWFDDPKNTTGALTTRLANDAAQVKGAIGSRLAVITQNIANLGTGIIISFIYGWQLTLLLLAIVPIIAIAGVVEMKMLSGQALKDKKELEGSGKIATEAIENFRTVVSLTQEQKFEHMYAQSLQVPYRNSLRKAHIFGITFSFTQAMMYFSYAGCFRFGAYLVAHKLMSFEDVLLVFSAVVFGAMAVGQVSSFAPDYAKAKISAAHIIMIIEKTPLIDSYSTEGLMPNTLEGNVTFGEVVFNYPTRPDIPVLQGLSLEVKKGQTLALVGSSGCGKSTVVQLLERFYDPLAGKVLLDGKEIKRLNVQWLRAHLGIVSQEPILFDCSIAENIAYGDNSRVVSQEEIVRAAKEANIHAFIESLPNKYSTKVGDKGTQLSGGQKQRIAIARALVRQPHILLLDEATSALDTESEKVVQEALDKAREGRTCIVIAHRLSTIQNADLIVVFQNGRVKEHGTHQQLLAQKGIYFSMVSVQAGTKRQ

[6] = target: T1, ATP-dependent translocase ABCB1; test: Inhibition of p-glycoprotein in vinblastine-sensitive human MCF7 cells assessed as decrease in rhodamine 123 accumulation at 25 ug/ml after 30 mins followed by washout measured after […] by flow cytometry; type: cell-based; details: mcf7, 0.5 h
MCF7 [7] = test: Cytotoxicity against vinblastine-resistant human MCF7 cells after 72 hrs by SRB assay; type: functional, cell-based; details: MCF7, 72 h
MCF7 [8] = test: Inhibition of p-glycoprotein expression in vinblastine-sensitive human MCF7 cells at 5 ug/ml after 24 hrs by immunofluorescence flow cytometry relative to control; type: functional; details: MCF7, 24 h
[9] = target: T1, ATP-dependent translocase ABCB1; test: Inhibition of p-glycoprotein in vinblastine-sensitive human MCF7 cells assessed as decrease in rhodamine 123 accumulation at 5 ug/ml after 30 mins by flow cytometry; type: cell-based; details: mcf7, 0.5 h

Compound	Ratio IC50 (MCF7 [1])	Ratio IC50 (MCF7 [2])	Ratio IC50 (MCF7 [3])	IC50 (MCF7 [7])	further results
CCCCC[C@H]1CCCCCCCCCC(=O)O[C@H]2[C@H](O)[C@@H](CO)O[C@@H](O[C@H]3[C@H](O1)O[C@H](C)[C@H](O)[C@@H]3O)[C@@H]2O[C@@H]1O[C@@H](C)[C@H](OC(=O)[C@@H](C)CC)[C@@H](O[C@@H]2O[C@@H](C)[C@H](O)[C@@H](O)[C@H]2O)[C@H]1OC(=O)[C@@H](C)CC	> 1590	47	> 1910		
CCCCC[C@H]1CCCCCCCCCC(=O)O[C@H]2[C@H](O[C@H]3[C@H](O1)O[C@H](C)[C@H](O)[C@@H]3O)O[C@@H](C)[C@H](O[C@@H]1O[C@@H](C)[C@H](O[C@@H]3O[C@@H](C)[C@H](OC(=O)[C@@H](C)CC)[C@@H](O)[C@H]3O)[C@@H](OC(=O)[C@@H](C)CC)[C@H]1O)[C@H]2O	> 1590	> 73.4	> 1910		
CCCCC[C@H]1CCCCCCCCCC(=O)O[C@H]2[C@H](O[C@H]3[C@H](O1)O[C@H](C)[C@H](O)[C@@H]3O)O[C@@H](C)[C@H](O[C@@H]1O[C@@H](C)[C@H](O[C@@H]3O[C@@H](C)[C@H](OC(=O)[C@@H](C)CC)[C@@H](O)[C@H]3O)[C@@H](O[C@@H]3O[C@H](CO)[C@@H](O)[C@H](O)[C@H]3O)[C@H]1OC(=O)[C@@H](C)CC)[C@H]2O	> 1590	> 73.4	> 1910		
CCCCC[C@H]1CCCCCCCCCC(=O)O[C@H]2[C@H](O[C@H]3[C@H](O1)O[C@H](CO)[C@@H](O)[C@@H]3O)O[C@@H](C)[C@H](O[C@@H]1O[C@@H](C)[C@H](O[C@@H]3O[C@@H](C)[C@H](OC(=O)[C@@H](C)CC)[C@@H](O)[C@H]3O)[C@@H](O[C@@H]3O[C@@H](C)[C@H](O)[C@@H](O)[C@H]3O)[C@H]1OC(=O)[C@@H](C)CC)[C@H]2O	> 1590	> 73.4	> 1910		
CCCCC[C@H]1CCCCCCCCCC(=O)O[C@H]2[C@@H](O)[C@H](O[C@H]3[C@H](O1)O[C@H](C)[C@H](O)[C@@H]3O)O[C@@H](C)[C@@H]2O[C@@H]1O[C@@H](C)[C@H](O[C@@H]2O[C@@H](C)[C@H](OC(=O)[C@@H](C)CC)[C@@H](O)[C@H]2O)[C@@H](O[C@@H]2O[C@H](CO)[C@@H](O)[C@H](O)[C@H]2O)[C@H]1OC(=O)[C@@H](C)CC [MURUCOIDIN V]	255	47	7.8		inhibition at 25 µg/mL (MCF7 [4]): 30%; inhibition (INH) [5]: Active; inhibition (INH) [6]: Active
C/C=C(\C)C(=O)O[C@H]1[C@H](O)[C@@H](O)[C@H](O[C@@H]2[C@H]3OC(=O)CCCCCCCCC[C@H](CCCCC)O[C@@H]4O[C@H](C)[C@@H](O)[C@H](O)[C@H]4O[C@@H]4O[C@H](COC(=O)[C@@H](C)CC)[C@@H](O)[C@H](O)[C@H]4O[C@H](O[C@H]2C)[C@@H]3OC(=O)[C@H](C)[C@@H](C)O)O[C@@H]1C [ORIZABIN XIV]				1.5 µg/mL (≈ 1.34 µM)	
C/C=C(\C)C(=O)O[C@H]1[C@H](O)[C@@H](O)[C@H](O[C@@H]2[C@H]3OC(=O)CCCCCCCCC[C@H](CCCCC)O[C@@H]4O[C@H](C)[C@@H](O)[C@H](O)[C@H]4O[C@@H]4O[C@H](COC(=O)C(C)C)[C@@H](O)[C@H](O)[C@H]4O[C@H](O[C@H]2C)[C@@H]3OC(=O)[C@@H](C)[C@H](C)O)O[C@@H]1C [ORIZABIN XI]				1.5 µg/mL (≈ 1.35 µM)	
C/C=C(\C)C(=O)O[C@H]1[C@H](O)[C@@H](O)[C@H](O[C@@H]2[C@H]3OC(=O)CCCCCCCCC[C@H](CCCCC)O[C@@H]4O[C@H](C)[C@@H](O)[C@H](O)[C@H]4O[C@@H]4O[C@H](COC(=O)[C@@H](C)[C@H](C)O)[C@@H](O)[C@H](O)[C@H]4O[C@H](O[C@H]2C)[C@@H]3OC(=O)[C@@H](C)CC)O[C@@H]1C [ORIZABIN XVII]				1.5 µg/mL (≈ 1.34 µM)	
C/C=C(\C)C(=O)O[C@H]1[C@H](O)[C@@H](O)[C@H](O[C@@H]2[C@H]3OC(=O)CCCCCCCCC[C@H](CCCCC)O[C@@H]4O[C@H](C)[C@@H](O)[C@H](O)[C@H]4O[C@@H]4O[C@H](COC(=O)[C@H](C)[C@@H](C)O)[C@@H](O)[C@H](O)[C@H]4O[C@H](O[C@H]2C)[C@@H]3OC(=O)[C@@H](C)CC)O[C@@H]1C [ORIZABIN XVI]				1.5 µg/mL (≈ 1.34 µM)	
CCCCC[C@H]1CCCCCCCCCC(=O)O[C@@H]2[C@@H](O[C@@H]3O[C@H](C)[C@@H](OC(=O)[C@@H](C)CC)[C@H](O)[C@H]3O)[C@H](C)O[C@@H](O[C@H]3[C@H](O[C@H]4[C@H](O1)O[C@H](C)[C@@H](O)[C@@H]4O)O[C@H](COC(=O)[C@@H](C)[C@H](C)O)[C@@H](O)[C@@H]3O)[C@@H]2OC(=O)[C@@H](C)CC [ORIZABIN XXI]				1.5 µg/mL (≈ 1.34 µM)	
CCCCC[C@H]1CCCCCCCCCC(=O)O[C@@H]2[C@@H](O[C@@H]3O[C@H](C)[C@@H](OC(=O)[C@@H](C)CC)[C@H](O)[C@H]3O)[C@H](C)O[C@@H](O[C@H]3[C@H](O[C@H]4[C@H](O1)O[C@H](C)[C@@H](O)[C@@H]4O)O[C@H](COC(=O)[C@H](C)[C@@H](C)O)[C@@H](O)[C@@H]3O)[C@@H]2OC(=O)[C@@H](C)CC [ORIZABIN XX]				1.5 µg/mL (≈ 1.34 µM)	
C/C=C(\C)C(=O)O[C@H]1[C@H](O)[C@@H](O)[C@H](O[C@@H]2[C@H]3OC(=O)CCCCCCCCC[C@H](CCCCC)O[C@@H]4O[C@H](C)[C@@H](O)[C@H](O)[C@H]4O[C@@H]4O[C@H](COC(=O)C(C)C)[C@@H](O)[C@H](O)[C@H]4O[C@H](O[C@H]2C)[C@@H]3OC(=O)[C@H](C)[C@@H](C)O)O[C@@H]1C [ORIZABIN X]				1.5 µg/mL (≈ 1.35 µM)	
COC(=O)[C@H]1[C@H]2C[C@@H]3c4[nH]c5cc(OC)ccc5c4CCN3C[C@H]2C[C@@H](OC(=O)c2cc(OC)c(OC)c(OC)c2)[C@@H]1OC [RESERPINE]					inhibition at 5 µg/mL (MCF7 [8]): 38%; inhibition (INH) [9]: Active
